From patent publication US20170348398A1, “COMPOSITIONS AND METHODS FOR DECREASING BLOOD GLUCAGON LEVELS” (Vanderbilt University, priority 2016, published 2017)

System: α-cells
Experiment: in vitro α-cell proliferation assay (cultured mouse islets, cytospin, Ki67+ glucagon+ counting)
Type: cell-based
Conditions: for α-cell proliferation when the amino acid is lowered to Gcgr+/+ serum levels: all other amino acids kept at high (Gcgr−/− serum) concentrations; for linear regression of amino acid concentration in media versus α-cell proliferation: media conditions of Table 1; for alpha cell proliferation at high levels of the amino acid: high levels of the single amino acid
From the text: To maximize the ability to quantify proliferating α-cells intact mouse islets were first cultured in media supplemented with Gcgr−/− or Gcgr+/+ mouse serum, dispersing the islets into cells, and then the cells centrifuged into a focused monolayer of cells using a cytospin centrifuge (FIG. 1A). […] To further maximize the throughput of this assay, a cytonuclear algorithm was developed to automate quantification of α-cell proliferation in cytospin islet images (FIG. 7C).
Pancreatic islets were isolated from male 8-14 week old C57B16/J mice (Jackson Laboratory, ME) and cultured in various media conditions for 3 days. […] For complete amino acid content in each media condition, see Table 1. For serum fractionation, serum was centrifuged for 1 hour at 2000×g at room temperature in a 10 kDa molecular weight cutoff spin column (Millipore, Billerica, Mass.). […] For lipid removal, serum was treated with Cleanascite reagent (Biotech Support Group, Monmouth Junction, N.J.) prior to islet culture at a 1:1 ratio according to the vendor's protocol.
Dispersed islet cells were recovered by centrifugation in RPMI media containing 5.6 mM glucose, 10% FBS, and 1% Penicillin/Streptomycin. The resulting cell pellet was resuspended in 100 ul of media and centrifuged onto a glass slide using a cytospin (Thermo Scientific, Waltham, Mass.) centrifuge. Air-dried slides were stored at −80° C. until use, thawed, and immediately fixed in 4% paraformaldehyde before immunocytochemistry. Slides were mounted with Aqua-Poly/Mount (Warrington, Pa.).
Cytospin slides were imaged using a Leica Microsystems Epifluorescent Microscope DM1 6000B. Tiled images were analyzed by a cytonuclear algorithm developed using the […] Software package (Indica Labs) (FIG. 7A). A glucagon surface was created by mapping glucagon immunoreactivity. DAPI and Ki67 positive cells were identified using a spot mapping algorithm. α-cells were identified by masking the glucagon surface on the DAPI staining and then creating a pseudospot where each α-cell was identified. Colocalization was determined by coregistering glucagon pseudospots with Ki67 spots. Each image was then manually checked for accuracy. For all islet culture experiments, a minimum of 500 α-cells counted per replicate (i.e. n=1) were required to be included in an experiment.

N[C@@H](CCC(=O)O)C(=O)O [L-glutamic acid]
α-cell proliferation when the amino acid is lowered to Gcgr+/+ serum levels: not required for increased α-cell proliferation
linear regression of amino acid concentration in media versus α-cell proliferation: significantly and positively correlated

NCCC[C@H](N)C(=O)O [ornithine]
α-cell proliferation (cultured mouse islets, 3 days): failed to stimulate α-cell proliferation
alpha cell proliferation at high levels of the amino acid: not

CSCC[C@H](N)C(=O)O [methionine]
alpha cell proliferation at high levels of the amino acid: not

CC(C)[C@H](N)C(=O)O [valine]
alpha cell proliferation at high levels of the amino acid: not

NC(=O)NCCC[C@H](N)C(=O)O [Citrulline]
α-cell proliferation (cultured mouse islets, 3 days): failed to stimulate α-cell proliferation

CC[C@H](C)[C@H](N)C(=O)O [isoleucine]
alpha cell proliferation at high levels of the amino acid: not

N[C@@H](Cc1ccc(O)cc1)C(=O)O [tyrosine]
alpha cell proliferation at high levels of the amino acid: not

NCC(=O)O [glycine]
alpha cell proliferation at high levels of the amino acid: not

N[C@@H](CO)C(=O)O [serine]
alpha cell proliferation at high levels of the amino acid: not

NC(=O)C[C@H](N)C(=O)O [asparagine]
alpha cell proliferation at high levels of the amino acid: not

O=C(O)[C@@H]1CCCN1 [proline]
alpha cell proliferation at high levels of the amino acid: not

CC(C)C[C@H](N)C(=O)O [L-leucine]
α-cell proliferation when the amino acid is lowered to Gcgr+/+ serum levels: not required for increased α-cell proliferation
linear regression of amino acid concentration in media versus α-cell proliferation: significantly and positively correlated

NC(=O)CC[C@H](N)C(=O)O [L-glutamine]
α-cell proliferation when the amino acid is lowered to Gcgr+/+ serum levels: abolished the stimulation of α-cell proliferation
non α-cell proliferation (cultured mouse islets, 3 days): no effect
α-cell proliferation (cultured mouse islets, 3 days): in a dose-dependent fashion increased α-cell proliferation
linear regression of amino acid concentration in media versus α-cell proliferation: significantly and positively correlated

NCCCC[C@H](N)C(=O)O [lysine]
alpha cell proliferation at high levels of the amino acid: not

N=C(N)NCCC[C@H](N)C(=O)O [arginine]
alpha cell proliferation at high levels of the amino acid: stimulated alpha cell proliferation

N[C@@H](Cc1c[nH]cn1)C(=O)O [histidine]
alpha cell proliferation at high levels of the amino acid: not

C[C@H](N)C(=O)O [alanine]
α-cell proliferation (cultured mouse islets, 3 days): failed to stimulate α-cell proliferation
alpha cell proliferation at high levels of the amino acid: not

B1: activin A: Recombinant mouse Activin A protein (R&D Biosystems) (protein, UniProt Q04998 309-424, looked up)
Inhibin beta A chain: GLECDGKVNICCKKQFFVSFKDIGWNDWIIAPSGYHANYCEGECPSHIAGTSGSSLSFHSTVINHYRMRGHSPFANLKSCCVPTKLRPMSMLYYDDGQNIIKKDIQNMIVEECGCS
modifications: Inhibin beta A chain
α-cell proliferation (cultured mouse islets, 3 days): did not stimulate α-cell proliferation
